Reference: patent US9550772B2, “Azaindole derivatives as multi kinase inhibitors” (ORIBASE PHARMA, priority 2012, dated 2017)
Where two headings read alike, the source gives them in different places.

Legend:
BRAF = biological target: T1, BRAF (Homo sapiens, UniProt P15056); assay: In vitro kinase assay (Z'-LYTE, Invitrogen); format: biochemical; details: compound at 100 nM, ATP Km apparent, read-out: % of inhibition of the kinase compared to the control
T1 construct: purchased Invitrogen
Protocol: (§1) The inhibitory activity of the compounds on 7 kinases (BRAF, EGFR (ErbB1), EGFR (ErbB1) T790M L858R, FGFR2, KDR (VEGFR2), PDGFRA (PDGFR alpha), SRC) was evaluated by Invitrogen using the Z′-LYTE® technology. Briefly, the Z′-LYTE® biochemical assay employs a fluorescence-based, coupled-enzyme format and is based on the differential sensitivity of phosphorylated and non-phosphorylated peptides to proteolytic cleavage. The peptide substrate is labeled with two fluorophores—one at each end—that make up a FRET pair. A ratiometric method, which calculates the ratio (the Emission Ratio) of donor emission to acceptor emission after excitation of the donor fluorophore at 400 nm, is used to quantitate reaction progress.
(§2) The compounds are screened in 1% DMSO (final) in the well. For 10 point titrations, 3-fold serial dilutions are conducted from the starting concentration. All Peptide/Kinase Mixtures are diluted to a 2× working concentration in the appropriate Kinase Buffer. All ATP Solutions are diluted to a 4× working concentration in Kinase Buffer (50 mM HEPES pH 7.5, 0.01% BRIJ-35, 10 mM MgCl2, 1 mM EGTA). ATP Km apparent is previously determined using a Z′-LYTE® assay.
(§3) Each compound was incubated at a concentration of 100 nM and the tables 21 to 27 summarize the results obtained showing the inhibitory power of a compound.

EGFR (ErbB1) = biological target: T2, EGFR (ErbB1) (Homo sapiens, UniProt P00533); assay: In vitro kinase assay (Z'-LYTE, Invitrogen); format: biochemical; details: compound at 100 nM, ATP Km apparent, read-out: % of inhibition of the kinase compared to the control
T2 construct: purchased Invitrogen
T2 sequence (P00533 25-1210): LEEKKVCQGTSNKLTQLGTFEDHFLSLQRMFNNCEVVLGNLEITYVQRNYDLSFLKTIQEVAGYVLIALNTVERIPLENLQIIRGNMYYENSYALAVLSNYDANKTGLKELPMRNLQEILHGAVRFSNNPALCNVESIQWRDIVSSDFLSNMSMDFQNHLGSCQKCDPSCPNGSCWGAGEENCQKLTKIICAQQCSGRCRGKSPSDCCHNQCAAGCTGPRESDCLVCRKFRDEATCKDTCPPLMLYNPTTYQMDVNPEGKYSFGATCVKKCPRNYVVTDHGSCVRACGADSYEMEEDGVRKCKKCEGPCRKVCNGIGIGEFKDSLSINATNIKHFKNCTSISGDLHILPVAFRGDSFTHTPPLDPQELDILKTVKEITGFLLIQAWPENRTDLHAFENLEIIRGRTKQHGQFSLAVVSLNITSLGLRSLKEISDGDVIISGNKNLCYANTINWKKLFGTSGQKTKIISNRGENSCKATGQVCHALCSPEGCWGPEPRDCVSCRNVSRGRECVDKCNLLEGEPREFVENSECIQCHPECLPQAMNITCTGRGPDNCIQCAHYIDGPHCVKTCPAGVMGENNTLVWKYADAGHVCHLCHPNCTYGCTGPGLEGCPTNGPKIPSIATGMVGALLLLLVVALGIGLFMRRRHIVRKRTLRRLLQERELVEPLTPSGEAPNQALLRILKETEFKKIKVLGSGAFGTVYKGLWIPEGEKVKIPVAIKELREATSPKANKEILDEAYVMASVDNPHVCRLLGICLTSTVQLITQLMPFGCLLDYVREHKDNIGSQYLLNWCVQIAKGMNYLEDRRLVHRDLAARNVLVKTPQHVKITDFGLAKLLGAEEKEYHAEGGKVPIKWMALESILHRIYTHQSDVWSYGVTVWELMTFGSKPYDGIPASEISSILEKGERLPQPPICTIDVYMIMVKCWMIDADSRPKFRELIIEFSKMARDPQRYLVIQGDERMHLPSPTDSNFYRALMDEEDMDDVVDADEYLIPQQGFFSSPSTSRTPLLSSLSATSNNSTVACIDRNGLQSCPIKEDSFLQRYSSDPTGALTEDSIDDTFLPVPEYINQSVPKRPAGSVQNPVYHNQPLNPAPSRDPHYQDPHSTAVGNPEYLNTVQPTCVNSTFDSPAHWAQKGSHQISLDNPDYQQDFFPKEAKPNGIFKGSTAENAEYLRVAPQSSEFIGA
Protocol: as §1, §2, §3

FGFR2 = biological target: T3, FGFR2 (Homo sapiens, UniProt P21802); assay: In vitro kinase assay (Z'-LYTE, Invitrogen); format: biochemical; details: compound at 100 nM, ATP Km apparent, read-out: % of inhibition of the kinase compared to the control
T3 construct: purchased Invitrogen
Protocol: as §1, §2, §3

KDR (VEGFR2) = biological target: T4, KDR (VEGFR2) (Homo sapiens, UniProt P35968); assay: In vitro kinase assay (Z'-LYTE, Invitrogen); format: biochemical; details: compound at 100 nM, ATP Km apparent, read-out: % of inhibition of the kinase compared to the control
T4 construct: purchased Invitrogen
T4 sequence (P35968 20-1356): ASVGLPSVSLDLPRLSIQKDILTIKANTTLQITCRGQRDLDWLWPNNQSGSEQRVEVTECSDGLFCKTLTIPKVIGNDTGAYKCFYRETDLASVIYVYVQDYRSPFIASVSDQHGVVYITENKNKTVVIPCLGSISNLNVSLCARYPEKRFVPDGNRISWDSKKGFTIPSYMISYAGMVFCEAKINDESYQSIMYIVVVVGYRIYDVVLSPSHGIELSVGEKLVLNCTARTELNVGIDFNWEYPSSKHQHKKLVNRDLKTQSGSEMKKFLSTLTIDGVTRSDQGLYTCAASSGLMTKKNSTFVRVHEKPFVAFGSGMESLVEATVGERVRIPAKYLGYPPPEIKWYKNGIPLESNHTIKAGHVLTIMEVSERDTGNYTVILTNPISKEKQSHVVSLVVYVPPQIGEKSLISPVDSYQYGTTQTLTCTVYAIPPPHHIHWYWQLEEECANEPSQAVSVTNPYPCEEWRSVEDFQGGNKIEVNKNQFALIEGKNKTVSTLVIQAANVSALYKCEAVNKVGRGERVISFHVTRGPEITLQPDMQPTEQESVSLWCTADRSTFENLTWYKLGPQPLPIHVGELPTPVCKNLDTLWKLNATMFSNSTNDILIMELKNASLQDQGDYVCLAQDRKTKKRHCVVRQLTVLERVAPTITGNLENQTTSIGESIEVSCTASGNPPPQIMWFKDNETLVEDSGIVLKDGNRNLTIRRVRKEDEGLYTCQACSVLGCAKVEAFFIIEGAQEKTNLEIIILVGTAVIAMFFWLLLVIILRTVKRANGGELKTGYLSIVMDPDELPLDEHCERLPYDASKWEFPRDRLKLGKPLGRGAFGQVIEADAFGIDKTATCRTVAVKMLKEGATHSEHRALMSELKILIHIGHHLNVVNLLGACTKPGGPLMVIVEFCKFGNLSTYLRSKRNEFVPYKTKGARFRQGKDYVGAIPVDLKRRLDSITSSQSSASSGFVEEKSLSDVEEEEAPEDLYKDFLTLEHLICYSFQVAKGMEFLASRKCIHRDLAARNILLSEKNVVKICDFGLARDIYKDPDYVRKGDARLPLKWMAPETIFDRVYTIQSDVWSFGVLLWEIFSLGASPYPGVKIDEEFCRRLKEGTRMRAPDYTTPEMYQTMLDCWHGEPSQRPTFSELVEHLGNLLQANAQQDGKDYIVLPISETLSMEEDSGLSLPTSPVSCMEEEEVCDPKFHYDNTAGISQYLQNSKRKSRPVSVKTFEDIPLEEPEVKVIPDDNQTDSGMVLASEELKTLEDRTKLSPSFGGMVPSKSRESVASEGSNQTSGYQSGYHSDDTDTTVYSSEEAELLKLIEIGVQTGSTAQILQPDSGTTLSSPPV
Protocol: as §1, §2, §3

PDGFRA (PDGFR alpha) = biological target: T5, PDGFRA (PDGFR alpha) (Homo sapiens, UniProt P16234); assay: In vitro kinase assay (Z'-LYTE, Invitrogen); format: biochemical; details: compound at 100 nM, ATP Km apparent, read-out: % of inhibition of the kinase compared to the control
T5 construct: purchased Invitrogen
T5 sequence (P16234 24-1089): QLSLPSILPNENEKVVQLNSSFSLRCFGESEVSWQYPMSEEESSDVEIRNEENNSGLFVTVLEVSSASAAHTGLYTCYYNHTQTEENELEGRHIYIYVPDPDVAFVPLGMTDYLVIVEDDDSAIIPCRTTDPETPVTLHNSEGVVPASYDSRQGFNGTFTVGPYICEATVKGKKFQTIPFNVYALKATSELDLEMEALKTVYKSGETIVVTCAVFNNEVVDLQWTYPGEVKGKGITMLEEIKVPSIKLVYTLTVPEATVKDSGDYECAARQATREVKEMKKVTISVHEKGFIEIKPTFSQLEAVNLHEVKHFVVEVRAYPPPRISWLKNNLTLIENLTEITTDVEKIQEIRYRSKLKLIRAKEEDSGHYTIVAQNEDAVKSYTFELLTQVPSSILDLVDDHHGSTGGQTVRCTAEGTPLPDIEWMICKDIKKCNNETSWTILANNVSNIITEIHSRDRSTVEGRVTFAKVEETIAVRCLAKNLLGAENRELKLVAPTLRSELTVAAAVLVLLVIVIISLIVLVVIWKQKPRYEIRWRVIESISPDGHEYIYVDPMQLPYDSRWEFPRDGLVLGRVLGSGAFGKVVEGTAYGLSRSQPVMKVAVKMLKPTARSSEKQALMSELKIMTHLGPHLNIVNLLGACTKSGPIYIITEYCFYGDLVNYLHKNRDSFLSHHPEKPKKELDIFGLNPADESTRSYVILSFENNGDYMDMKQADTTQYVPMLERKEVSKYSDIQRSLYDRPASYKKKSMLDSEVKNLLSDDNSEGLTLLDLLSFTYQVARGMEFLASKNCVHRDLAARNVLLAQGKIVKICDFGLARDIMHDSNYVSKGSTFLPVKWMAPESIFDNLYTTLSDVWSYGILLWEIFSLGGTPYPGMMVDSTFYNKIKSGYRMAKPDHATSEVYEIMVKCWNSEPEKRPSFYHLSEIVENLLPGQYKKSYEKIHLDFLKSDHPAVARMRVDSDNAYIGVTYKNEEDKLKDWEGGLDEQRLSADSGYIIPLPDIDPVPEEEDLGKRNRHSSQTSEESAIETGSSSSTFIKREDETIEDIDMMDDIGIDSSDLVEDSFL
Protocol: as §1, §2, §3

SRC = biological target: T6, SRC (Homo sapiens, UniProt P12931); assay: In vitro kinase assay (Z'-LYTE, Invitrogen); format: biochemical; details: compound at 100 nM, ATP Km apparent, read-out: % of inhibition of the kinase compared to the control
T6 construct: purchased Invitrogen
T6 sequence (P12931 whole entry): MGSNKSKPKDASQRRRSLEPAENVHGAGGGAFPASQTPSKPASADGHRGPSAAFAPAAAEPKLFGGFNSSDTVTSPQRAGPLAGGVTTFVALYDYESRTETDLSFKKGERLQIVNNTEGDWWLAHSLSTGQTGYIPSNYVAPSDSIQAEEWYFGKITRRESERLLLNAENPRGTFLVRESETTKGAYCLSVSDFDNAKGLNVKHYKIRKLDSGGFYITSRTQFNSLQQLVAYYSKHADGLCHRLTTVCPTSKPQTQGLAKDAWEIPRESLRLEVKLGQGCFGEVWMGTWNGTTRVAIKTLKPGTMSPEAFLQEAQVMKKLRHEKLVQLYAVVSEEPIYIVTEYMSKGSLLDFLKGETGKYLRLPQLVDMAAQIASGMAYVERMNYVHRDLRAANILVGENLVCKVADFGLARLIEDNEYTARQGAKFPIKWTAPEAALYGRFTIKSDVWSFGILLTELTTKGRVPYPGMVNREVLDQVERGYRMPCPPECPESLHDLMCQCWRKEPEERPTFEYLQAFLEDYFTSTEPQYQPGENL
Protocol: as §1, §2, §3

HUVEC cells = assay: In vitro cell proliferation assay (MTT); format: cell-based; details: Homo sapiens, 72 hr, read-out: EC50, anti-proliferative activity
Protocol: (§4) Cancer cell lines (5×10^3 cells per well) or HUVEC (1×10^4 cells per well) or HRMEC (1×10^4 cells per well) were distributed in 96-well plates and incubating in duplicate with escalating concentrations (10 nM to 3 μM) of compounds for 72 hr. Cell proliferation was measured using MTT (3[4,5-dimethylthiazol-2-yl]-2,5-diphenyltetrazolium bromide). The EC50 values were calculated from sigmoidal dose-response curves utilizing Prism 5.0 from Graph-Pad Software (GraphPad Software, La Jolla, Calif., USA), with values normalized to those of DMSO-treated control wells (0%) and 1% SDS control wells (100%).

HepG2 cell line = assay: In vitro cell proliferation assay (MTT); format: cell-based; details: Homo sapiens, HepG2, 72 hr, read-out: EC50, anti-proliferative activity
Protocol: as §4

T1 sequence (P15056 whole entry): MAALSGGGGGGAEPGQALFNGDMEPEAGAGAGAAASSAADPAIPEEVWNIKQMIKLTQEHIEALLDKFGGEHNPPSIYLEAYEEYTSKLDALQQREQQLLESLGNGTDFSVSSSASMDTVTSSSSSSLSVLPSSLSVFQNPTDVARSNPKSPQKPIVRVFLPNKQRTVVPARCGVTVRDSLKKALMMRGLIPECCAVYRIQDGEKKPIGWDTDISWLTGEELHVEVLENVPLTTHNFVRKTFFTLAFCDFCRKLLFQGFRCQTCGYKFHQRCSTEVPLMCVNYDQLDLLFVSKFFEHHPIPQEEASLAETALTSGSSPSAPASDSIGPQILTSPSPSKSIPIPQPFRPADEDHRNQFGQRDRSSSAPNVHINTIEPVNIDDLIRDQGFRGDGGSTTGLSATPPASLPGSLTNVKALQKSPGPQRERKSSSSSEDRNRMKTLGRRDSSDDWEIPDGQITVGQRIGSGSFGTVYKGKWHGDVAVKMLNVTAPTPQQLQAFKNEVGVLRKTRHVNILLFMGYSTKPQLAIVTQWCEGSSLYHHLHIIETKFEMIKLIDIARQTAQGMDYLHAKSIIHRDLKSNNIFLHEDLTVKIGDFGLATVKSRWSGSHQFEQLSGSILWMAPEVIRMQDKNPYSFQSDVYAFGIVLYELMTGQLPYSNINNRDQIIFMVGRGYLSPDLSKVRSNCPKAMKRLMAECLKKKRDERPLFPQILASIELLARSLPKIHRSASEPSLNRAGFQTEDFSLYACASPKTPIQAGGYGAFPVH

SMILES | inhibition at 0.1 µM (BRAF) [%] | inhibition at 0.1 µM (EGFR (ErbB1)) [%] | inhibition at 0.1 µM (FGFR2) [%] | inhibition at 0.1 µM (KDR (VEGFR2)) [%] | inhibition at 0.1 µM (PDGFRA (PDGFR alpha)) [%] | inhibition at 0.1 µM (SRC) [%] | EC50 (HepG2 cell line; EC50 ≧ 1 μM) [nM] | EC50 (HepG2 cell line; 100 nM < EC50 < 1 μM) [nM] | EC50 (HUVEC cells; EC50 ≧ 1 μM) [nM] | EC50 (HUVEC cells; 100 nM < EC50 < 1 μM) [nM]
CC(=O)c1cc2cc(CCc3cc(NS(=O)(=O)c4cccc(C(F)(F)F)c4)ccc3C)cnc2[nH]1 [OR0967, N-{3-[2-(2-Acetyl-1H-pyrrolo[2,3-b]pyridin-5-yl)-ethyl]-4-methyl-phenyl}-3-trifluoromethyl-benzenesulfonamide] | < 50 | < 50 | < 50 | < 50 | < 50 | < 50 | ≥ 1000 |  | ≥ 1000 | 
COC(=O)c1cc2cc(CCc3cccc(NC(=O)c4ccc5[nH]ccc5c4)c3)cnc2[nH]1 [OR0978, 5-(2-{3-[(1H-Indole-5-carbonyl)-amino]-phenyl}-ethyl)-1H-pyrrolo[2,3-b]pyridine-2-carboxylic acid methyl ester] | < 50 | < 50 | < 50 | ≥ 50 | ≥ 50 | < 50 | ≥ 1000 |  | ≥ 1000 | 
COC(=O)c1cc2cc(CCc3cccc(NC(=O)c4ccc(CN5CCC(N(C)C)C5)c(C(F)(F)F)c4)c3)cnc2[nH]1 (stereo not drawn) [OR0922, 5-(2-{5-[4-(3-Dimethylamino-pyrrolidin-1-ylmethyl)-3-trifluoromethyl-benzoylamino]-phenyl}-ethyl)-1H-pyrrolo[2,3-b]pyridine-2-carboxylic acid methyl ester] | < 50 | ≥ 50 | ≥ 50 | ≥ 50 |  |  | ≥ 1000 |  |  | 100 to 1000
COC(=O)c1cc2cc(CCc3cc(NC(=O)c4ccccc4OC)ccc3Cl)cnc2[nH]1 [OR1064, 5-{2-[2-Chloro-5-(2-methoxy-benzoylamino)-phenyl]-ethyl}-1H-pyrrolo[2,3-b]pyridine-2-carboxylic acid methyl ester] | < 50 | < 50 | < 50 | < 50 | ≥ 50 | < 50 |  |  |  | 
CCN(CC)CCNC(=O)c1c(C)[nH]c(/C=C2\C(=O)Nc3ccc(F)cc32)c1C [Sunitinib, reference compound] |  |  |  |  |  |  |  |  | ≥ 1000 | 

More lines, main results first:

inhibition at 0.1 µM (BRAF) [%] | inhibition at 0.1 µM (EGFR (ErbB1)) [%] | inhibition at 0.1 µM (FGFR2) [%] | inhibition at 0.1 µM (KDR (VEGFR2)) [%] | inhibition at 0.1 µM (PDGFRA (PDGFR alpha)) [%] | inhibition at 0.1 µM (SRC) [%] | EC50 (HepG2 cell line; EC50 ≧ 1 μM) [nM] | EC50 (HepG2 cell line; 100 nM < EC50 < 1 μM) [nM] | SMILES | EC50 (HUVEC cells; EC50 ≧ 1 μM) [nM] | EC50 (HUVEC cells; 100 nM < EC50 < 1 μM) [nM]
< 50 | ≥ 50 | ≥ 50 | ≥ 50 |  |  |  |  | Cc1ccc(NC(=O)c2ccc(CN3CCN(C)CC3)c(C(F)(F)F)c2)cc1CCc1cnc2[nH]c(C(=O)O)cc2c1 [OR1054, 5-(2-{2-Methyl-5-[4-(4-methyl-piperazin-1-ylmethyl)-3-trifluoromethyl-benzoylamino]-phenyl}-ethyl)-1H-pyrrolo[2,3-b]pyridine-2-carboxylic acid] |  | 
< 50 | ≥ 50 | ≥ 50 | ≥ 50 |  |  | ≥ 1000 |  | COC(=O)c1cc2cc(CCc3cc(NC(=S)c4ccc(CN5CCN(C)CC5)cc4)ccc3C)cnc2[nH]1 [OR0969, 5-(2-{2-Methyl-5-[4-(4-methyl-piperazin-1-ylmethyl)-thiobenzoylamino]-phenyl}-ethyl)-1H-pyrrolo[2,3-b]pyridine-2-carboxylic acid methyl ester] | ≥ 1000 | 
≥ 50 | ≥ 50 | ≥ 50 | ≥ 50 |  |  |  | 100 to 1000 | COC(=O)c1cc2cc(CCc3cc(NC(=O)c4ccc(CN5CCN(C)CC5)c(F)c4)ccc3C)cnc2[nH]1 [OR0920, 5-(2-{5-[3-Fluoro-4-(4-methyl-piperazin-1-ylmethyl)-benzoylamino]-2-methyl-phenyl}-ethyl)-1H-pyrrolo[2,3-b]pyridine-2-carboxylic acid methyl ester] | ≥ 1000 | 
